Results: paper PMC10330721, “Chemo-enzymatic synthesis and biological activity evaluation of propenylbenzene derivatives” (Frontiers in Microbiology, 2023)
≈ marks a conversion by molar mass, not a printed value. Where two headings read alike, the source gives them in different places.

Legend:
[1] = tested on: C. albicans strains; assay: Fungistatic activity assay, broth microdilution, values given over several strains; type: cell-based, Candida albicans
Method: (§1) Fungistatic activity was determined using Candida albicans ATCC 90028 from the American Type Culture Collection (ATCC, Manassas, VA, United States), and clinical isolates, C. albicans 636/20, C. albicans 595/20, and C. albicans 38 obtained from Wrocław Medical University, Wrocław, Poland.
(§2) All compounds were tested for biological activity against C. albicans ATTC 90028, C. albicans 636/20, C. albicans 595/20, and C. albicans 38 using the broth microdilution method. YPD medium (20 g glucose, 20 g Bacto Peptone, 10 g yeast extract, and 1 L of distilled water, pH 6.5) was used for the tests. The compound solutions were prepared in DMSO and diluted in YPD to obtain final concentrations in the range of 10–250 μg/mL. One hundred microlitres of each solution was pipetted into the wells of a 96-well microtiter plate. The inoculum was standardized to 0.5 McFarland standard and then diluted to obtain a final suspension with a cell density of 0.5–2.5 × 10^3 CFU/mL. The inoculum size was 100 μL. The positive control comprised DMSO added in the same concentration as the tested compounds in the inoculum, whereas the negative control consisted of DMSO diluted in the broth without the addition of inoculum. The microtiter plates were incubated in a Biosan PST-60 HL Plate Shaker-Thermostat (Riga, Latvia) at 35°C under shaking at 1,000 rpm for 24 h.

[2] = tested on: C. albicans ATTC18804; design: method as in Kubo et al., 1993; settings: C. albicans ATTC18804 ref Kubo et al., 1993; cited from earlier work
[3] = tested on: HepG2 cells; assay: Resazurin-based viability assay; type: cell-based, human; settings: for Effect on HepG2 proliferation / viability (in words): 24 h, 1, 50 and 200 μg/mL
Method: (§3) The human HepG2 and Caco-2 cell lines were obtained from the American Type Culture Collection (HB-8065™ and HTB-37™) and the MG-63 cell line was obtained from the European Collection of Authenticated Cell Cultures (Merck, Poznań, Poland). HepG2 cells were cultured in Dulbecco’s modified Eagle’s Medium - low glucose (Merck) supplemented with 10% foetal bovine serum (FBS) (Merck). Caco-2 cells were cultured in Dulbecco’s modified Eagle’s medium - high glucose (Merck) supplemented with 10% FBS, 2% HEPES buffer (Thermo Fisher Scientific, Warszawa, Poland), 1% Penicillin–Streptomycin-Amphotericin B Solution (100×, Merck), 1% MEM solution (100×, Thermo Fisher Scientific), and 1% Gentamycin Solution (10 mg/mL, Merck). MG-63 cells were cultured in Minimum Essential Medium (Merck) supplemented with 10% FBS. All cells were cultured in an atmosphere of 5% CO2 at 37°C.
(§4) HepG2, Caco-2, and […] were seeded in 96-well plates at 20,000 cells per well, and MG-63 cells at 10,000 cells per well, as described previously ([Marycz et al., 2012]; [Kornicka et al., 2017]). The tested compounds were dissolved in ethanol at 10 mg/mL. The concentrations were then adjusted to 1, 50, and 200 μg/mL in culture medium. Four controls were prepared: no ethanol added, and 0.01, 0.5, and 2% EtOH. The cells were treated with the compounds for 24 h. Then, cell viability was evaluated using the resazurin-based assay kit (TOX8), as described previously ([Grzesiak et al., 2011]; [Marycz et al., 2018]). The culture medium was replaced with medium containing 10% resazurin dye. The cells were incubated at 37°C in an atmosphere of 5% CO2 for 2 h. Absorbance levels were measured spectrophotometrically (Epoch) at a wavelengths of 600 nm for resazurin and 690 nm as a reference.

[4] = Haemolytic activity assay; type: cell-based; settings: human red blood cells (RBCs) from healthy donors, 37°C, read-out: Percentage of haemolysis
Method: This test is based on comparison of the cytotoxicity of all tested compounds in human red blood cells (RBCs) with that in a control group. RBCs for this method were obtained from a blood center from examined and healthy donors. The compounds were tested at 10, 20, 40, 60, 80, and 100 μM concentrations. The control sample contained only ethanol in the same volume as the test samples. […] The samples were incubated at 37°C for 1 h. Then, the absorbance at 540 nm was measured using a UV–Vis spectrophotometer (Specord 40, Analytik Jena, Jena, Germany). The haemolytic activity of the compounds was determined as the ratio of the absorbance of haemoglobin in the test samples to that in completely haemolyzed cells multiplied by 100%.

[5] = tested on: C. albicans 595/20; assay: Fungistatic activity assay, broth microdilution; type: cell-based; settings: Candida albicans, 595/20, 24 h
Method: as §1, §2

[6] = tested on: RBCs membrane; assay: Fluorescence spectroscopy of the RBCs membrane (DPH probe anisotropy); type: cell-based, human; settings: for Fluorescence anisotropy of the DPH probe: membranes of RBCs, 37 °C; for Change in DPH anisotropy / RBCs membrane fluidity (in words): RBCs, 20, 60 and 100 μM
Method: Using the DPH probe, the anisotropy values of cell membranes of RBCs modified with the test compounds were measured. RBCs for this analysis were prepared according to the method described in subsection 2.5.3. Then, the DPH probe was added to RBCs with a haematocrit of 0.2%. The final concentration of the probe in the sample was 1.3 μM. The mixture was incubated protected from light at 37°C for 30 min. Then, the compounds dissolved in ethanol were added. The compounds were tested at 20, 60, and 100 μM concentrations. Samples with compounds and control samples with alcohol of the appropriate concentration were incubated at 37°C for 1 h. Measurements in triplicate were made in quartz cuvettes using a CARY Eclipse fluorimeter (Varian, San Diego, CA, United States) at 37°C. The excitation wavelength for the DPH probe is λexc = 360 nm and the emission wavelength is λem = 426 nm.

[7] = tested on: human colon carcinoma Caco-2 cell line; settings: ref Lea et al., 2016; Padhy et al., 2022; cited from earlier work
[8] = tested on: MG63 cells; assay: Resazurin-based viability assay; type: cell-based, human; settings: for Effect on MG63 proliferation / viability (in words): 24 h, 1, 50 and 200 μg/mL
Method: as §3, with “HepG2” for “The human HepG2 and Caco-2 cell lines were obtained from the American Type Culture Collection (HB-8065™ and HTB-37™) and the MG-63 cell line was obtained from the European Collection of Authenticated Cell Cultures (Merck, Poznań, Poland). HepG2”
The tested compounds were dissolved in ethanol at 10 mg/mL. The concentrations were then adjusted to 1, 50, and 200 μg/mL in culture medium. Four controls were prepared: no ethanol added, and 0.01, 0.5, and 2% EtOH. The cells were treated with the compounds for 24 h. […] The culture medium was replaced with medium containing 10% resazurin dye. The cells were incubated at 37°C in an atmosphere of 5% CO2 for 2 h. Absorbance levels were measured spectrophotometrically (Epoch) at a wavelengths of 600 nm for resazurin and 690 nm as a reference.

[9] = tested on: C. albicans 38; assay: Fungistatic activity assay, broth microdilution; type: cell-based, Candida albicans
Method: as §1, §2

[10] = tested on: C. albicans ATTC 90028; assay: Fungistatic activity assay, broth microdilution; type: cell-based; settings: Candida albicans, ATTC90028, 24 h
Method: as §1, §2

[11] = tested on: Caco-2 cells; assay: Resazurin-based viability assay; type: cell-based, human; settings: 24 h, 50 μg/mL
Method: as §3, §4

[12] = Free-radical scavenging assay (DPPH test); type: biochemical; settings: DPPH 190 μM in methanol, 1 h, 25°C, absorbance 517 nm
Method: The antiradical activity of all compounds was tested using the 2,2-diphenyl-1-picrylhydrazyl (DPPH) test according to a previously described method ([Herald et al., 2012]; [Dudek et al., 2022]). One litre of a fresh solution of 190 μM DPPH in pure methanol was prepared in a dark glass bottle. The solution was kept protected from light and used within a week. The tested compounds and ascorbic acid as a positive control were prepared at concentrations in the range of 5–100 μg/mL. Two hundred microlitres of the test compound dilutions was added to each well of a 96-well microtiter plate. Then, […] of a 190 μM solution of DPPH in methanol was added. DPPH was also added to the negative control, in which 200 μL of methanol was added instead of the test compounds. All samples were tested at least in triplicate. The microtiter plates were incubated in the Biosan PST-60 HL thermoshaker at 25°C under shaking at 1,000 rpm for 1 h. […] EC50 values were calculated using Quest Graph™ EC50 Calculator (AAT Bioquest, Inc.).

[13] = tested on: human hepatocellular carcinoma HepG2 cells; design: method as in Yoo et al., 2005; Song et al., 2014, 2020; settings: ref Yoo et al., 2005; Song et al., 2014, 2020; cited from earlier work
[14] = cited from earlier work

Row | Compound | hemolysis at 1 h, 10 µM [4] [%] | hemolysis at 1 h, 20 µM [4] [%] | hemolysis at 1 h, 40 µM [4] [%] | hemolysis at 1 h, 60 µM [4] [%] | hemolysis at 1 h, 80 µM [4] [%] | hemolysis at 1 h, 100 µM [4] [%] | Fluorescence anisotropy of the DPH probe ([6]; 20 µM) | Fluorescence anisotropy of the DPH probe ([6]; 60 µM) | Fluorescence anisotropy of the DPH probe ([6]; 100 µM) | Effect on MG63 proliferation / viability (in words) [8] | other results
1 | C/C=C/c1ccc2c(c1)OCO2 [1a, isosafrole] | 2.41 ± 0.481 | 1.54 ± 0.202 | 2.18 ± 0.153 | 2.4 ± 0.446 | 2.585 ± 0.014 | 2.55 ± 0.007 | 0.262 ± 0.016 | 0.264 ± 0.030 | 0.237 ± 0.041 | promoted MGC63 proliferation | MIC50 ([1]; Candida albicans, read-out: MIC50 (over all tested strains)): < 100 µg/mL; MIC [2]: 100 µg/mL (≈ 617 µM); Effect on HepG2 proliferation / viability (in words) [3]: more strongly significantly suppressed the viability; MIC50 [5]: 65 µg/mL (≈ 401 µM); Apoptosis in Caco-2 cell line (in words) [7]: induced apoptosis
2 | CC=Cc1ccccc1 [2a, prop-1-en-1-yl benzene] | – | – | – | – | – | – | 0.262 ± 0.020 | 0.268 ± 0.023 | 0.267± 0.006 | promoted MGC63 proliferation | MIC50 ([9]; Candida albicans, 38, 24 h): > 250 µg/mL; Effect on HepG2 proliferation / viability (in words) [3]: more strongly significantly suppressed the viability; MIC50 [10]: > 250 µg/mL
3 | CC(O)C(=O)c1ccccc1 (centres unmarked) [2c, 2-hydroxy-1-phenylpropan-1-one] | 1.16 ± 0.027 | 1.86 ± 0.697 | 1.42 ± 0.55 | 1.74 ± 0.59 | 1.94 ± 0.154 | 2.46 ± 0.322 | 0.236 ± 0.026 | 0.240 ± 0.019 | 0.238 ± 0.002 | promoted MGC63 proliferation | MIC50 ([9]; Candida albicans, 38, 24 h): > 250 µg/mL; MIC50 [10]: > 250 µg/mL; Change in DPH anisotropy / RBCs membrane fluidity (in words) [6]: a decrease in anisotropy
4 | COc1ccc(C(=O)C(C)O)cc1 (centres unmarked) [3c, 2-hydroxy-1-(4-methoxyphenyl)propan-1-one] | 1.83 ± 0.355 | 1.65 ± 0.509 | 1.73 ± 0.174 | 2.33 ± 0.436 | 2.15 ± 0.161 | 1.53 ± 0.134 | 0.239 ± 0.006 | 0.249 ± 0.007 | 0.244 ± 0.003 | promoted MGC63 proliferation | MIC50 ([9]; Candida albicans, C. albicans 38, 24 h, 35°C, tested 10–250 μg/mL, read-out: MIC50): 61 µg/mL (≈ 339 µM); Effect on Caco-2 proliferative activity (in words) [11]: induced the proliferative activity; Effect on HepG2 proliferative activity (in words) ([3]; 24 h, 50 μg/mL): induced the proliferative activity; Change in DPH anisotropy / RBCs membrane fluidity (in words) [6]: a decrease in anisotropy; Effect on MG63 proliferative activity / viability (in words) ([8]; 24 h, 50 μg/mL): induced the proliferative activity
5 | O=C1O[C@H]([C@@H](O)CO)C(O)=C1O [ascorbic acid, reference compound] | – | – | – | – | – | – | – | – | – | – | EC50 antiradical activity [12]: 15.21 µg/mL (≈ 86.4 µM)
6 | C=CCc1ccc(O)c(OC)c1 [eugenol] | – | – | – | – | – | – | – | – | – | – | Apoptosis in Caco-2 cell line (in words) [7]: induced apoptosis; Effect on growth of HepG2 cells (in words) [13]: inhibited the growth
7 | C=CCc1ccc2c(c1)OCO2 [safrole] | – | – | – | – | – | – | – | – | – | – | IC50 antioxidant activity ([14]; ref Eid and Hawash (2021)): 50.28 µg/mL (≈ 310 µM); Effect on growth of HepG2 cells (in words) [13]: inhibited the growth
8 | isoeugenol [5a] | – | – | – | – | – | – | 0.259 ± 0.009 | 0.272 ± 0.085 | 0.256 ± 0.023 | promoted MGC63 proliferation | MIC50 (over all tested strains) ([1]; C. albicans 636/20, 595/20, 38 and ATTC90028): 52 to 88 µg/mL; MIC [2]: 400 µg/mL; antioxidant activity ([14]; ref Siva et al. (2019)): 86%
